Test results: patent US5792622A, “Assay for chemicals” (priority 1995, dated 1998)
In brackets after ≈: the same amount, converted by molar mass. Where two headings read alike, the source gives them in different places.

Assays:
R. meliloti [1] = test: microbe, parasite or virus in culture; format: cell-based
[2] = Description: Solid phenol was dissolved in water and added to the reaction tubes.
R. meliloti [3] = details: cited from earlier work
R. meliloti NSI = test: Inhibition of growth of R. meliloti NSI; format: cell-based; details: read-out: concentration inhibiting growth 50%
Description: Typically, R. meliloti is grown in medium with 10-20 uM calcium. Magnesium sulfate, at 59.9 ppm, is 0.2435 mM. The medium MDM contains 0.6 mm Magnesium chloride; this is a concentration found in most defined media. […] CDM, the medium used in the experiments with the assay of the invention, is 0.81 mM with respect to magnesium.

[4] = Table 9; cited from earlier work
E. coli = test: Inhibition of tetrazolium dye reduction by E. coli; format: cell-based
Description: The other strains of bacteria, mixed in a buffer with various toxic chemicals, which were tested with the tetrazolium dye, gave varying results. Some bacteria reduced the dye, but the reduction was not inhibited appreciably by toxic chemicals. The absorbance of tetrazolium by Rhodobacter sphaeroides was not inhibited by copper. E. coli reduced the dye, but reduction was not inhibited by xylene. […] FIG. 1 is a graph showing data comparing the absorbance of the bacteria R. meliloti and E. coli at A590 varying between 0.0 and 0.3 in reacting with different toxins.

Compound: ClC(Cl)(Cl)Cl [Carbon tetrachloride]
- IC50 (R. meliloti [1]; Sinorhizobium meliloti, Table 4, organic compounds, read-out: average (ppm), concentration giving 50% inhibition of dye reduction): 3530 µg/mL (≈ 22.9 mM)
- miscibility in water [2]: very immiscible in water

Compound: N#CC(C#N)=NNc1ccc(OC(F)(F)F)cc1 [FCCP, carbonyl-cyanide p(triflouromethoxy)phenylhydrozone]
- IC50 (R. meliloti [1]): only a few μl
- IC50 (R. meliloti [1]; Sinorhizobium meliloti, read-out: average (ppm), concentration giving 50% inhibition of dye reduction): 0.114 µg/mL (≈ 0.000449 mM)
- inhibition of tetrazolium reduction compared with DNP (R. meliloti [3]): at a much lower concentration than does DNP

Compound: [Cl-].[Cl-].[Mg+2] [MgCl2, Magnesium chloride]
- IC50 (R. meliloti NSI): 26.9 mM

Compound: Xylene
- ppm (50% inhibition of reduction) (R. meliloti [1]; Table 5, 10,000 ppm stock method): 151 ppm
- ppm (50% inhibition of reduction) (R. meliloti [1]; Table 5, QSAR method: aqueous phase assayed, hydrocarbon in water estimated by QSAR solubility model): 30.3 ppm
- ppm (50% inhibition of reduction) (R. meliloti [1]; Table 5, direct method): 476 ppm
- Rhizobium/Tetrazolium ppm (R. meliloti [1]; Table 9): 146-452 ppm
- sensitivity of Rhizobium/Tetrazolium assay compared with Microtox assay (R. meliloti [1]; ratio of the inhibitory concentrations): at least an order of magnitude more sensitive than the Rhizobium/Tetrazolium assay
- Microtox ppm [4]: .70-9.25 ppm
- inhibition of dye reduction (E. coli): not inhibited
